Test results as given in PMC12483202, “Pharmacokinetic profile of oral firocoxib in the koala (Phascolarctos cinereus)” (PLOS One, 2025).

Assay: Single oral dose (5 mg/kg) pharmacokinetics of firocoxib in koalas, plasma HPLC, non-compartmental analysis;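 also: healthy adult koalas, three per sex, anaesthetised the day before dosing for cephalic vein catheterisation, with serial blood draws and firocoxib in plasma quantified by HPLC using fluorescence detection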
Details: for AUC(0-t): AUC0-t; for MRT inf: MRT0-inf; for k el: ke; for concentration at 1 h / concentration at 2 h / concentration at 4 h / concentration at 8 h: koala (Phascolarctos cinereus)
[1] = arithmetic mean, female koalas (n = 3), single oral 5 mg/kg
[2] = arithmetic mean, male koalas (n = 3), single oral 5 mg/kg
[3] = arithmetic mean, n = 6 koalas, single oral 5 mg/kg
[4] = both, plasma, po, 5 mg/kg, arithmetic mean, n = 6 koalas, single oral 5 mg/kg
[5] = both, plasma, po, 5 mg/kg, harmonic mean, n = 6 koalas, single oral 5 mg/kg
[6] = both, plasma, po, 5 mg/kg, median (range), n = 6 koalas, single oral 5 mg/kg
[7] = female, plasma, po, 5 mg/kg, Firocoxib plasma concentration, K4 female, single oral 5 mg/kg
[8] = female, plasma, po, 5 mg/kg, Firocoxib plasma concentration, K5 female, single oral 5 mg/kg
[9] = female, plasma, po, 5 mg/kg, Firocoxib plasma concentration, K6 female, single oral 5 mg/kg
[10] = female, koala, plasma, po, 5 mg/kg, Firocoxib plasma concentration, K4 female, single oral 5 mg/kg
[11] = female, koala, plasma, po, 5 mg/kg, Firocoxib plasma concentration, K5 female, single oral 5 mg/kg
[12] = female, koala, plasma, po, 5 mg/kg, Firocoxib plasma concentration, K6 female, single oral 5 mg/kg
[13] = female, plasma, po, 5 mg/kg, K4 female, single oral 5 mg/kg
[14] = female, plasma, po, 5 mg/kg, K5 female, single oral 5 mg/kg
[15] = female, plasma, po, 5 mg/kg, K6 female, single oral 5 mg/kg
[16] = female, plasma, po, 5 mg/kg, arithmetic mean, female koalas (n = 3), single oral 5 mg/kg
[17] = female, plasma, po, 5 mg/kg, harmonic mean, female koalas (n = 3), single oral 5 mg/kg

Excerpt: Six mature koalas (3 males, 3 females) with median (range) body weights and ages of 9.2 kg, (7.5 to 9.7 kg) and 4.8 years (4.3 to 9.1 years), respectively, were recruited from the Taronga Zoo colony (Mosman, NSW, Australia). These koalas were clinically normal based on regular physical examinations, haematological and biochemical analyte values. During the study, koalas were housed singly and supplied with various Eucalyptus spp. foliage and water ad-libitum. […] No animals were sacrificed; the animals were returned to the colony immediately after firocoxib administration and blood sampling. In order to minimise stress, intravenous catheterisation for sequential blood sampling was performed under general anaesthesia.
The day prior to drug administration and blood collection, the koalas were anaesthetised with alfaxalone (Alfaxan, Jurox, Pty Ltd, Rutherford, NSW, Australia) at 3 mg/kg administered intramuscularly (i.m.) and maintained under anaesthesia on isoflurane in 100% oxygen via a face mask for placement of a 20 gauge, 1 ¼ inch intravenous catheter into the cephalic vein. A short T-connector extension set (Codan, Santa Ana, CA, USA) and cap was attached to the catheter and flushed with saline. The extension tube, cap and catheter were secured with tape and bandage, for serial blood collection. Blood (5 mL) was collected at the time of anaesthesia in a lithium heparin tube to establish a baseline (t = 0 h).
Firocoxib was administered as a single oral dose of 5 mg/kg as crushed tablets made into a paste with Vetafarm Koala Crittacare (Wagga Wagga, NSW) and water.
Samples were centrifuged at 1500 x g for 10 minutes, within 1 h of collection; the plasma was immediately stored at –80 °C and protected from light until drug quantification. […] Clinical observations for the presence of adverse effects in the animals treated included measurement of vital signs, appetite, body weight, faecal consistency and overall behaviour and mobility.
Quantification of firocoxib and visualisation of metabolites in plasma was achieved by HPLC with fluorescence detection modified from a published method [12]. The HPLC system consisted of a Shimadzu LC-20AT solvent delivery unit, DGU-20A degasser, a SIL-20A HT auto injector, an SPD-20A UV detector and RF-10A XL fluorescence detector (Shimadzu, Rydalmere, NSW, Australia) and column oven (CTO-20A). […] Chromatographic separation was performed with a Supelco, Discovery C18, (25 cm x 4.6 mm, 5 µm) column (Merck KGaA, Darmstadt, Germany) with a 1-mm Opti-guard C18 pre-column (Choice Analytical, Thornleigh, NSW, Australia) at ambient temperature. […] Fluorescence detection excitation and emission wavelengths were 280 nm and 375 nm, respectively.
For sample preparation 200 μL of each of the following: plasma samples collected from koalas administered firocoxib, standards prepared for the standard curves and the QC samples; were extracted twice by mixing with 800 μL of ethyl acetate. The extracted organic portion (1.6 mL) was dried under vacuum in a Speed Vac Concentrator (Thermo Scientific, MA, USA) at 35 °C for 1 h, reconstituted with 100 μL of acetonitrile, and finally 10 μL of the reconstituted sample was injected into the HPLC system.
The concentration of each QC sample was repeated three times with the accuracy and precision calculated on each of the triplicates. The mean accuracy ± standard deviation (SD) were calculated using the formula [13]:
Firocoxib plasma concentrations from the initial oral administration underwent non-compartmental analysis. The peak concentration (Cmax) and the time reached (Tmax) were obtained directly from the measured concentrations. The elimination half-life (t1/2) was determined by ln2/ke where ke is the elimination rate constant which is the inverse slope of the elimination or terminal part of the semi-log curve.

For `CC1(C)OC(=O)C(OCC2CC2)=C1c1ccc(S(C)(=O)=O)cc1` [firocoxib], the “AUC 0-t/AUC0-inf” value (K1 male, single oral 5 mg/kg) was 0.72, the “AUMC 0-inf” value (K1 male, single oral 5 mg/kg) was 56998 ng/mL*h^2 and the Cl/F (K1 male, single oral 5 mg/kg) was 19.0 L/h. The “ka (absorption constant)” value (K1 male, single oral 5 mg/kg) was 0.11 h⁻¹, the “AUC 0-t/AUC0-inf” value (K2 male, single oral 5 mg/kg) was 0.99 and the “AUMC 0-inf” value (K2 male, single oral 5 mg/kg) was 11422 ng/mL*h^2. The Cl/F (K2 male, single oral 5 mg/kg) was 30.5 L/h, the “ka (absorption constant)” value (K2 male, single oral 5 mg/kg) was 0.21 h⁻¹ and the “AUC 0-t/AUC0-inf” value (K3 male, single oral 5 mg/kg) was 0.99. For the same compound, the “AUMC 0-inf” value (K3 male, single oral 5 mg/kg) was 13436.9 ng/mL*h^2, the Cl/F (K3 male, single oral 5 mg/kg) was 24.6 L/h and the “ka (absorption constant)” value (K3 male, single oral 5 mg/kg) was 0.17 h⁻¹. For the same compound, the “AUC 0-t/AUC0-inf” value (K4 female, single oral 5 mg/kg) was 0.98, the “AUMC 0-inf” value (K4 female, single oral 5 mg/kg) was 8500.1 ng/mL*h^2 and the Cl/F (K4 female, single oral 5 mg/kg) was 38.5 L/h. For the same compound, the “ka (absorption constant)” value (K4 female, single oral 5 mg/kg) was 0.43 h⁻¹, the “AUC 0-t/AUC0-inf” value (K5 female, single oral 5 mg/kg) was 0.94 and the “AUMC 0-inf” value (K5 female, single oral 5 mg/kg) was 11402.2 ng/mL*h^2. The Cl/F (K5 female, single oral 5 mg/kg) was 49.2 L/h, the “ka (absorption constant)” value (K5 female, single oral 5 mg/kg) was 0.25 h⁻¹ and the “AUC 0-t/AUC0-inf” value (K6 female, single oral 5 mg/kg) was 0.83. For the same compound, the “AUMC 0-inf” value (K6 female, single oral 5 mg/kg) was 14183.2 ng/mL*h^2, the Cl/F (K6 female, single oral 5 mg/kg) was 87.5 L/h and the “ka (absorption constant)” value (K6 female, single oral 5 mg/kg) was 0.25 h⁻¹. The “AUC 0-t/AUC0-inf” value [1] was 0.92, the “AUMC 0-inf” value [1] was 11361.8 ng/mL*h^2 and the Cl/F [1] was 58.4 L/h. The ka [1] was 0.28 h⁻¹, the “AUC 0-t/AUC0-inf” value [2] was 0.90 and the “AUMC 0-inf” value [2] was 27285.7 ng/mL*h^2. It also gave a Cl/F [2] of 24.7 L/h, a ka [2] of 0.19 h⁻¹ and an AUMC [3] of 19323.8 ng/mL*h ^ 2. For the same compound, the Cl/F [3] was 41.6 L/h, the ka [3] was 0.24 h⁻¹ and the AUC(0-inf) (both, plasma, po, 5 mg/kg, AUC0-inf, arithmetic mean, n = 6 koalas, single oral 5 mg/kg) was 1480 ng·h/mL. It also gave an AUC(0-inf) (both, plasma, po, 5 mg/kg, AUC0-inf, harmonic mean, n = 6 koalas, single oral 5 mg/kg) of 1080 ng·h/mL, an AUC(0-inf) (both, plasma, po, 5 mg/kg, AUC0-inf, median (range), n = 6 koalas, single oral 5 mg/kg) of 1260 ng·h/mL and an AUC(0-t) [4] of 1310 ng·h/mL. For the same compound, the AUC(0-t) [5] was 974 ng·h/mL, the AUC(0-t) [6] was 1240 ng·h/mL and the Cmax [4] was 141 ng/mL. For the same compound, the Cmax [5] was 79.2 ng/mL, the Cmax [6] was 140 ng/mL and the MRT inf [4] was 12 h. It also gave an MRT inf [5] of 10.7 h, an MRT inf [6] of 12.2 h and a Tmax [4] of 4.33 h. It also gave a Tmax [5] of 3.69 h, a Tmax [6] of 4 h and a Tmax (both, plasma, po, 5 mg/kg, median value, both sexes, koala (6), PO 5 mg/kg) of 4 h. For the same compound, the Vd/F (both, plasma, po, 5 mg/kg, Vss/F, arithmetic mean, n = 6 koalas, single oral 5 mg/kg) was 674 L, the Vd/F (both, plasma, po, 5 mg/kg, Vss/F, harmonic mean, n = 6 koalas, single oral 5 mg/kg) was 332 L and the Vd/F (both, plasma, po, 5 mg/kg, Vss/F, median (range), n = 6 koalas, single oral 5 mg/kg) was 811 L. The Vd/F (both, plasma, po, 5 mg/kg, Vz/F, arithmetic mean, n = 6 koalas, single oral 5 mg/kg) was 582 L, the Vd/F (both, plasma, po, 5 mg/kg, Vz/F, harmonic mean, n = 6 koalas, single oral 5 mg/kg) was 230 L and the Vd/F (both, plasma, po, 5 mg/kg, Vz/F, median (range), n = 6 koalas, single oral 5 mg/kg) was 240 L. For the same compound, the k el [4] was 3.89e-05 s⁻¹, the k el [5] was 2.78e-05 s⁻¹ and the k el [6] was 4.17e-05 s⁻¹. For the same compound, the half-life (both, plasma, po, 5 mg/kg, t1/2, arithmetic mean, n = 6 koalas, single oral 5 mg/kg) was 7 h, the half-life (both, plasma, po, 5 mg/kg, t1/2, harmonic mean, n = 6 koalas, single oral 5 mg/kg) was 5.01 h and the half-life (both, plasma, po, 5 mg/kg, t1/2, median (range), n = 6 koalas, single oral 5 mg/kg) was 5.46 h. The MRT inf (female, in vivo, po, 5 mg/kg, K6 female, single oral 5 mg/kg) was 26.4 h, the concentration at 1 h [7] was 8.27 ng/mL and the concentration at 2 h [7] was 24.3 ng/mL. For the same compound, the concentration at 4 h [7] was 89.3 ng/mL, the concentration at 8 h [7] was 74.7 ng/mL and the concentration at 1 h [8] was 28.6 ng/mL. For the same compound, the concentration at 2 h [8] was 61.9 ng/mL, the concentration at 4 h [8] was 51.8 ng/mL and the concentration at 8 h [8] was 45.8 ng/mL. The concentration at 1 h [9] was 7.89 ng/mL, the concentration at 2 h [9] was 12.3 ng/mL and the concentration at 4 h [9] was 28.9 ng/mL. For the same compound, the concentration at 8 h [9] was 17.5 ng/mL, the concentration at 0.25 h [10] was 0.78 ng/mL and the concentration at 0.5 h [10] was 1.23 ng/mL. The concentration at 12 h [10] was 40.2 ng/mL, the concentration at 24 h [10] was 3.7 ng/mL and the concentration at 0.25 h [11] was 3.74 ng/mL. The concentration at 0.5 h [11] was 5.88 ng/mL, the concentration at 12 h [11] was 23.3 ng/mL and the concentration at 24 h [11] was 12.8 ng/mL. It also gave a concentration at 36 h [11] of 3.83 ng/mL, a concentration at 0.25 h [12] of 3.58 ng/mL and a concentration at 0.5 h [12] of 10.6 ng/mL. The concentration at 12 h [12] was 13.2 ng/mL, the concentration at 24 h [12] was 3.78 ng/mL and the concentration at 36 h [12] was 7.02 ng/mL. The concentration at 48 h (female, koala, plasma, po, 5 mg/kg, Firocoxib plasma concentration, K6 female, 48 h, single oral 5 mg/kg) was 3.83 ng/mL, the AUC(0-inf) (female, plasma, po, 5 mg/kg, AUC0-inf, K4 female, single oral 5 mg/kg) was 973 ng·h/mL and the AUC(0-inf) (female, plasma, po, 5 mg/kg, AUC0-inf, K5 female, single oral 5 mg/kg) was 868 ng·h/mL. For the same compound, the AUC(0-inf) (female, plasma, po, 5 mg/kg, AUC0-inf, K6 female, single oral 5 mg/kg) was 537 ng·h/mL, the AUC(0-inf) (female, plasma, po, 5 mg/kg, AUC 0-inf, arithmetic mean, female koalas (n = 3), single oral 5 mg/kg) was 793 ng·h/mL and the AUC(0-inf) (female, plasma, po, 5 mg/kg, AUC 0-inf, harmonic mean, female koalas (n = 3), single oral 5 mg/kg) was 742 ng·h/mL. It also gave an AUC(0-t) [13] of 954 ng·h/mL, an AUC(0-t) [14] of 820 ng·h/mL and an AUC(0-t) [15] of 444 ng·h/mL. For the same compound, the AUC(0-t) [16] was 739 ng·h/mL, the AUC(0-t) [17] was 664 ng·h/mL and the Cmax [13] was 89.3 ng/mL. For the same compound, the Cmax [14] was 61.9 ng/mL, the Cmax [15] was 28.9 ng/mL and the Cmax [16] was 60.3 ng/mL. It also gave a Cmax [17] of 48.4 ng/mL.
